Assay results reported in patent publication US20100130616A1, “SALT OF ALISKIREN WITH OROTIC ACID” (NOVARTIS AG, priority 2006, published 2010).
Where a name gives a salt, the structure may show the parent alone.

What was measured:
Type in all cases: physicochemical
[1] = 1-Week Chemical Stability Test, total impurities by HPLC-UV 230 nm
Text: (§1) The exceptional stability of the orotate salt of aliskiren towards water may also be shown in stability tests.

[2] = dynamic vapour sorption (DVS-1), isothermal water absorption or loss as a function of relative humidity; settings: for Change in Mass (%) Desorption / Change in Mass (%) Sorption: 25° C., 2 hours after equilibration
Experimental: A clear characterisation of this property is achieved by means of isothermal measurements over predetermined time intervals and predetermined relative humidity using dynamic vapour sorption (DVS-1 from the company Surface Measurement Systems LTD, Marlow, Buckinghamshire, UK). Table 2 illustrates the mass change, i.e. the water absorption or loss as a function of relative humidity at 25° C. for a sample of the orotate salt of aliskiren and for a period of 2 hours after equilibration at each humidity level. The change in mass during the sorption and desorption cycle are shown. The measurement error of this sorption method based on thermogravimetry is about 0.1%.

[3] = stability test towards water, water content after storage; settings: open container and sealed ampoule, four weeks at 40° C. and 75% relative humidity
Text: as §1

| Total Impurities (HPLC-UV, 230 nm), % ([1]; 1 week, 50 C. sealed) | Total Impurities (HPLC-UV, 230 nm), % ([1]; 1 week, 50 C./75% RH) | Total Impurities (HPLC-UV, 230 nm), % ([1]; 1 week, 80 C. sealed) | Total Impurities (HPLC-UV, 230 nm), % ([1]; 1 week, 80 C./75% RH) | Total Impurities (HPLC-UV, 230 nm), % ([1]; Unstressed) | moisture uptake ([2]; at 80% r.h.) | hygroscopicity ([2]; from moisture uptake at 80% r.h.) | Change in Mass (%) Desorption ([2]; relative humidity 0%) | Change in Mass (%) Sorption ([2]; relative humidity 0%) | Change in Mass (%) Desorption ([2]; relative humidity 30%) | Change in Mass (%) Sorption ([2]; relative humidity 30%) | Change in Mass (%) Desorption ([2]; relative humidity 50%) | Change in Mass (%) Sorption ([2]; relative humidity 50%) | Change in Mass (%) Desorption ([2]; relative humidity 70%) | Change in Mass (%) Sorption ([2]; relative humidity 70%) | Change in Mass (%) Desorption ([2]; relative humidity 90%) | Change in Mass (%) Sorption ([2]; relative humidity 90%) | Change in Mass (%) Desorption ([2]; relative humidity 95%) | Change in Mass (%) Sorption ([2]; relative humidity 95%) | water content [3] | SMILES |
| --- | --- | --- | --- | --- | --- | --- | --- | --- | --- | --- | --- | --- | --- | --- | --- | --- | --- | --- | --- | --- |
| 1.1% | 9.3% | 18.1% | 64.3% | 1.1% | – | – | – | – | – | – | – | – | – | – | – | – | – | – | – | COCCCOc1cc(C[C@@H](C[C@H](N)[C@@H](O)C[C@H](C(=O)NCC(C)(C)C(N)=O)C(C)C)C(C)C)ccc1OC [HemiFumarate, aliskiren hemifumarate, reference compound] |
| 0.3% | 0.3% | 0.4% | 0.5% | 0.3% | 0.4% | slightly-hygroscopic | 0.011% | 0.000% | 0.611% | 0.133% | 0.852% | 0.214% | 1.326% | 0.307% | 2.818% | 0.673% | 7.104% | 7.104% | remains constant | COCCCOc1cc(CC(C[C@H](N)[C@@H](O)CC(C(=O)NCC(C)(C)C(N)=O)C(C)C)C(C)C)ccc1OC (stereo partly shown) [orotate salt of aliskiren] |
